From US20080124310A1, “Bead based receptor biology” (priority 2006, published 2008)

Columns and labels:
Type in all cases: cell-based, murine
RAW 264.7 macrophages [1] = test: Uptake of free fluorescent DI-LDL or OX-LDL, red fluorescence confocal microscopy; settings: 594 nm
Procedure: RAW 264.7 macrophages were cultured in alpha MEM with 5% fetal calf serum as described. The effects of lovastatin on IgG and LDL coated micro-particle engulfment at 0, 50 nM, 100 nM, 500 nM, 1 mM and higher was tested. The accumulation of free DI-LDL was quantified directly by its red fluorescence. External particles were stained green with secondary anti rabbit FITC and then cells were permeablized and all particles stained red with secondary anti rabbit CY3. Thus engulfed particles appear red while external particles appear yellow. Beads within the cells carrying only the red signal (engulfed) and not also the green signal {red+green=yellow} (outside) were quantified for accumulation assays using both total fluorescence in the green channel and by counting individual beads in three fields on three independent cover slips for each concentration.

RAW 264.7 macrophages [2] = test: Phagocytic receptor assay: engulfment of IgG or ligand coated particles by RAW macrophages (foam cell model), confocal
Source text: FIG. 25, panels A and B, illustrate respectfully a method for measurement of phagocytic receptors and a method for measuring transfection or delivery of nucleic acids and simultaneous measurement of particle engulfment using a single cell multi label confocal microscope experiment. A direct or surrogate measurement of receptor function or receptor pathway activity must be made in order establish the role of potential therapeutic target proteins in receptor function. IgG, complement, low density lipoprotein (LDL), oxidatively modified LDL (OX-LDL). Acetyl-LDL, apolipoproteins, lipoproteins, lipopolysaccharide (LPS), scavenger and other receptor functions can be measured by the accumulation of particles. The particles may themselves be comprised in part of fluorescent materials or can be directly stained with fluorescent or other colored materials or can be bound by proteins that directly or indirectly permit the attachment of fluorescent, chemiluminescent or other reporter molecules. The beads may be stained in live cells or cells fixed with formalin or paraformaldehyde or organic solvents such as alcohol and acids or by other means. The beads can be stained both before or after internalization with or without the permeabilization of the cells by detergents or organic solvents. The beads may be cells that can be lysed and imaged directly. The cells may be counter stained for the presence of specific proteins using antibodies or may express fluorescent protein constructs or contain fluorescent silencing RNA or DNA constructs or biopolymer modulating agents or drugs (FIG. 25).
We created a foam cell model and quantitative confocal assays for micro particle engulfment by macrophages. The engulfment of particles by macrophages and the generation of free radicals by leukocytes are the key physiological actions that lead to the generation of foam cells that are the center of atherosclerotic plaques. We made a cellular model system of foam cells or activated leukocytes and examine the effects of moderate levels of alcohol over time on the accumulation of particles and generation of free radicals at the site of particle accumulation compared to statins and propranolol. The model systems will consist of RAW macrophages that engulf hydrophobic polystyrene microparticles with or without coating by ligands or mixtures of ligands such as those found in cellular growth media, or free fluorescently labeled DI-LDL, OX-LDL, Acetyl LDL or other. Live cell confocal microscopy was used to quantify the effects of ethanol, compared to lovastatin and propranolol, on particle engulfment.
External particles were stained green with secondary anti rabbit FITC and then cells were permeablized and all particles stained red with secondary anti rabbit CY3. Thus engulfed particles appear red while external particles appear yellow. Beads within the cells carrying only the red signal (engulfed) and not also the green signal {red+green=yellow} (outside) were quantified for accumulation assays using both total fluorescence in the green channel and by counting individual beads in three fields on three independent cover slips for each concentration.
RAW 264.7 macrophages were cultured in alpha MEM with 5% fetal calf serum as described. The effects of lovastatin on IgG and LDL coated micro-particle engulfment at 0, 50 nM, 100 nM, 500 nM, 1 mM and higher was tested. The accumulation of free DI-LDL was quantified directly by its red fluorescence. External particles were stained green with secondary anti rabbit FITC and then cells were permeablized and all particles stained red with secondary anti rabbit CY3. Thus engulfed particles appear red while external particles appear yellow.

RAW macrophages = test: Biochemical measurement of protein levels in fractions of drug treated RAW macrophages
Source text: A now well established side effect of ethanol is to prevent heart attack. Thus the common effects of statins, propranolol, and ethanol must be closely linked to the central mechanism that is the most important pharmacological target of heart attack and thus atherosclerosis prevention. It remains possible that the preventative effect of statins results from their effect to inhibit particle engulfment and foam cell formation by macrophages leading to atherosclerotic plaques. We created a foam cell model and quantitative confocal assays for micro particle engulfment by macrophages. The engulfment of particles by macrophages and the generation of free radicals by leukocytes are the key physiological actions that lead to the generation of foam cells that are the center of atherosclerotic plaques. We have made a cellular model system of leukocytes or activated leukocytes or leukocytes treated over time to examine the effects drugs and biopolymer modification materials over time on the activation of receptors at the site of modified or ligand coated particles. The drugs used in this system to examine the kinetics of receptor function at modified particles may result in changes to the cell including changes in gene expression at the level of DNA transcription, RNA production, accumulation or post-transcription processing, mRNA production accumulation or expression all of which may also alter protein expression. We examined the use of these model systems with and without beads as a system to screen the effects of drugs that are known to prevent heart attack and stroke in model of leukocyte cells within atherosclerotic plaques. We observe that drugs that effect receptor associated signaling may also alter gene, RNA or ultimately protein expression in cells resulting in changes in protein levels. Proteins that change levels in response to a drug may be themselves drug target proteins.
The drugs used in the leukocyte model system to examine the kinetics of receptor function at modified particles may result in changes to the cell including changes in gene expression at the level of DNA transcription, RNA production, accumulation or post-transcription processing, mRNA production accumulation or expression all of which may also alter protein expression. We examined the use of these model systems with and without beads as a system to screen the effects of drugs that are known to effect receptor response at or near the cell surface or interior of the cells. We observe that drugs that effect receptor associated signaling may also alter gene, RNA or ultimately protein expression in cells resulting in changes in protein levels. Proteins that change levels in response to a drug may be themselves drug target proteins. […] The RAW leukocyte model foam cells system alone or in combination with the bead based biology system can be used to characterize the effects of receptor or cellular activation in terms of second messengers such as lipid and protein phosphorylation with respect to drug treatment or time in the cytosol of leukocytes (FIG. 67).

Thrombospondin = test: Surface expression of thrombospondin on macrophages
Source text: Thrombospondin is a protein that is known to bind apolipoprotein and lipid receptors expressed on the surface of cells including the scavenger receptor class B multi ligand receptor CD36 associated with atherosclerosis and Alzheimer's.

In the case of CC[C@H](C)C(=O)O[C@H]1C[C@@H](C)C=C2C=C[C@H](C)[C@H](CC[C@@H]3C[C@@H](O)CC(=O)O3)[C@H]21 [lovastatin], the “accumulation of free cholesterol (free fluorescent DI-LDL or OX-LDL)” value (RAW 264.7 macrophages [1]) was “no effect”, the “engulfment / accumulation of IgG or ligand coated particles” value (RAW 264.7 macrophages [2]; RAW macrophages, confocal) was “reduced the capacity of RAW macrophages to engulf particles” and the “dose that directly prevents engulfment of particles” value (RAW 264.7 macrophages [2]; cultured macrophage leukocytes) was at most 100 nM. For the same molecule, the “levels of cytosolic proteins (FIG. 57)” value (RAW macrophages; cytosol fraction) was “alter levels of proteins in the membranes”, the “levels of proteins in the extracellular matrix (FIG. 55)” value (RAW macrophages; matrix fraction) was “alter levels of proteins in the extracellular matrix” and the “levels of proteins in the membranes (FIG. 54)” value (RAW macrophages; membrane fraction) was “alter levels of proteins in the membranes”. The “levels of proteins in the secretions (FIG. 56)” value (RAW macrophages; secreted proteins) was “alter levels of proteins in the secretions” and the “expression of Thrombospondin on the cell surface” value (Thrombospondin) was “lowered the expression of Thrombospondin”.
